Measured values published in patent publication US6472348B1, “Pyridone derivatives and herbicides” (Kumiai Chemical Industry Co., Ltd., priority 1996, dated 2002).

Assays:
Format in all cases: in vivo
Design in all cases: scale not given here
[1] = system: common lambsquarters (Ch); experiment: Test Example 11: crop plant selectivity by upland field foliage treatment (corn), herbicidal effects
Summary of the method: (§1)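 Corn and the weed species were sown together in sand-filled pots and grown in a greenhouse for 2 weeks before foliar treatment. Herbicidal effect was scored on day 14 after treatment against a graded standard scale, with corn phytotoxicity scored alongside.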

[2] = system: China jute (Ab); experiment: as above
Summary of the method: as §1

[3] = system: cotton (Go); experiment: Test Example 4: crop plant selectivity by upland field soil treatment (cotton), phytotoxicity; conditions: evaluated 21st day after application
Summary of the method: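 Upland soil treatment: crop and weed seeds in sand pots under a soil cover, compound applied to soil, greenhouse-grown, rated visually 21 d later.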

[4] = system: pale smartweed (Po); experiment: Test Example 5: crop plant selectivity by upland field soil treatment (wheat), herbicidal effects; conditions: 21st day after application
Summary of the method: (§2)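 Pre-emergence soil treatment, sand-filled pots, seeds covered with soil; greenhouse culture; visual scoring of weed control and wheat injury at day 21 post-application.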

[5] = system: green foxtail (Se); experiment: as above; conditions: 21st day after application
Summary of the method: as §2

[6] = system: slender amaranth (Am); experiment: as above; conditions: 21st day after application
Summary of the method: as §2

[7] = system: common lambsquarters (Ch); experiment: as above; conditions: 21st day after application
Summary of the method: as §2

[8] = system: China jute (Ab); experiment: as above; conditions: 21st day after application
Summary of the method: as §2

[9] = system: corn (Ze); experiment: Test Example 7: crop plant selectivity by upland field soil treatment (corn), phytotoxicity; conditions: 21st day after application
Summary of the method: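 Sand-filled pot; corn plus weeds sown, soil-covered. Post-application greenhouse culture. Herbicidal effect/phytotoxicity rated day 21 per standard scale.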

[10] = common lambsquarters, foliage treatment, dose 1.6 g ai/10a, evaluated on 14th day after treatment, index per Table 47
[11] = China jute, foliage treatment, dose 1.6 g ai/10a, evaluated on 14th day after treatment, index per Table 47
[12] = upland field foliage treatment (corn test), dose 1.6 g ai/10a, 14th day after treatment
[13] = upland field foliage treatment (corn test), dose 0.1 g ai/10a, 14th day after treatment

SMILES | Herbicidal effects Ch [1, 10] | Herbicidal effects Ab [2, 11] | Phytotoxicity Go ([3]; dose 1.6 g ai/10 a) | Phytotoxicity Go ([3]; dose 6.3 g ai/10 a) | Herbicidal effects Po ([4]; dose 1.6 g ai/10a) | Herbicidal effects Se ([5]; dose 1.6 g ai/10a) | Herbicidal effects Am ([6]; dose 1.6 g ai/10a) | Herbicidal effects Ch ([7]; dose 1.6 g ai/10a) | Herbicidal effects Ab ([8]; dose 1.6 g ai/10a) | Herbicidal effects Ch [1, 12] | Herbicidal effects Ab [2, 12] | Herbicidal effects Po ([4]; dose 6.3 g ai/10a) | Herbicidal effects Se ([5]; dose 6.3 g ai/10a) | Herbicidal effects Am ([6]; dose 6.3 g ai/10a) | Herbicidal effects Ch ([7]; dose 6.3 g ai/10a) | Herbicidal effects Ab ([8]; dose 6.3 g ai/10a) | Phytotoxicity Ze ([9]; dose 1.6 g ai/10a) | Phytotoxicity Ze ([9]; dose 6.3 g ai/10a) | Herbicidal effects Ch [1, 13] | Herbicidal effects Ab [2, 13]
C#CC(C)Oc1cc(-c2cn(C)c(C(F)(F)F)cc2=O)c(F)cc1Cl (racemic) [Compound 6-10] | 5 | 5 | 0 | 1 | 5 | 4 | 5 | 5 | 4 | – | – | – | – | – | – | – | – | – | – | –
C=CCOc1cc(-c2ccc(C(F)(F)F)n(C)c2=O)c(F)cc1Cl [1-16] | – | – | 0 | 0 | 5 | 5 | 5 | 5 | 5 | 5 | 5 | 5 | 5 | 5 | 5 | 5 | 0 | 1 | – | –
C#CCOc1cc(-c2ccc(C(F)(F)F)n(C)c2=O)c(F)cc1Cl [1-18] | – | – | 1 | 1 | 5 | 5 | 5 | 5 | 5 | 5 | 5 | – | – | – | – | – | 1 | 2 | – | –
Cn1c(C(F)(F)F)ccc(-c2cc(OCC#N)c(Cl)cc2F)c1=O [1-25] | – | – | – | 1 | – | – | – | – | – | 5 | 5 | – | – | – | – | – | – | 1 | – | –
C#CCOc1cc(-c2ccc(C(F)(F)F)n(C)c2=O)c(Cl)cc1Cl [1-30] | – | – | 0 | 1 | 5 | 5 | 5 | 5 | 5 | 5 | 5 | – | – | – | – | – | 1 | 2 | – | –
CCOC(=O)c1cc(-c2ccc(C(F)(F)F)n(C)c2=O)c(F)cc1Cl [1-65] | – | – | 0 | 0 | 5 | 5 | 5 | 5 | 5 | 5 | 5 | 5 | 5 | 5 | 5 | 5 | 1 | 2 | – | –
Cn1c(C(F)(F)F)ccc(-c2cc(OCCCl)c(Cl)cc2F)c1=O [1-171] | – | – | – | 0 | – | – | – | – | – | 5 | 5 | 5 | 5 | 5 | 5 | 5 | – | 0 | – | –
C#CCOc1cc(-c2ccc(C(F)(F)F)n(N)c2=O)c(F)cc1Cl [1-178] | – | – | 1 | 1 | 5 | 5 | 5 | 5 | 5 | 5 | 5 | – | – | – | – | – | 2 | – | – | –
COc1cc(-c2ccc(C(F)(F)F)n(N)c2=O)c(F)cc1Cl [1-179] | – | – | – | 0 | – | – | – | – | – | 5 | 5 | 5 | 5 | 5 | 5 | 5 | – | 1 | – | –
CCOCOc1cc(-c2ccc(C(F)(F)F)n(C)c2=O)c(F)cc1Cl [1-181] | – | – | – | 0 | – | – | – | – | – | 5 | 5 | 5 | 5 | 5 | 5 | 5 | – | – | – | –
C#CC(C)Oc1cc(Cl)cc(F)c1-c1ccc(C(F)(F)F)n(C)c1=O (stereo not shown) [1′-5] | – | – | 0 | 0 | 5 | 4 | 5 | 5 | 5 | 5 | 5 | 5 | 5 | 5 | 5 | 5 | 1 | 2 | – | –
C=CC(C)Oc1cc(-c2ccc(C(F)(F)F)n(C)c2=O)c(F)cc1Cl (stereo not shown) [Compound 1-182] | – | – | – | 0 | – | – | – | – | – | 5 | 5 | 5 | 5 | 5 | 5 | 5 | – | 1 | – | –
CCON=Cc1cc(-c2ccc(C(F)(F)F)n(C)c2=O)c(F)cc1Cl [Compound 1-187] | – | – | – | 0 | – | – | – | – | – | 5 | 5 | 5 | 5 | 5 | 5 | 5 | – | 1 | – | –
CCOC(=O)CON=Cc1cc(-c2ccc(C(F)(F)F)n(C)c2=O)c(F)cc1Cl [Compound 1-191] | – | – | – | 1 | – | – | – | – | – | 5 | 5 | 5 | 5 | 5 | 5 | 5 | – | 1 | – | –
C=CC(O)c1cc(-c2ccc(C(F)(F)F)n(C)c2=O)c(F)cc1Cl (stereo not shown) [Compound 1-197] | – | – | – | 1 | – | – | – | – | – | 5 | 5 | 5 | 5 | 5 | 5 | 5 | – | 1 | – | –
C#CC(O)c1cc(-c2ccc(C(F)(F)F)n(C)c2=O)c(F)cc1Cl (stereo not shown) [Compound 1-202] | – | – | 1 | 1 | 5 | 5 | 5 | 5 | 5 | – | – | – | – | – | – | – | 1 | – | – | –
CSCOc1cc(-c2ccc(C(F)(F)F)n(C)c2=O)c(F)cc1Cl [Compound 1-208] | – | – | – | 1 | – | – | – | – | – | 5 | 5 | 4 | 5 | 5 | 5 | 5 | – | 1 | – | –
C#CCN1C(=O)COc2cc(Cl)c(-c3ccc(C(F)(F)F)n(C)c3=O)cc21 [Compound 2-25] | – | – | 0 | 0 | 5 | 5 | 5 | 5 | 5 | 5 | 5 | 5 | 5 | 5 | 5 | 5 | 1 | – | – | –
C=CCN1C(=O)COc2cc(Cl)c(-c3ccc(C(F)(F)F)n(C)c3=O)cc21 [Compound 2-26] | – | – | – | 1 | – | – | – | – | – | 5 | 5 | 5 | 5 | 5 | 5 | 5 | – | 1 | – | –
Cc1cc2c(-c3ccc(C(F)(F)F)n(C)c3=O)c(F)cc(Cl)c2o1 [Compound 4-1] | – | – | 0 | 1 | 5 | 5 | 5 | 5 | 5 | – | – | 5 | 5 | 5 | 5 | 5 | 0 | 1 | – | –
CCc1cc2c(-c3ccc(C(F)(F)F)n(C)c3=O)c(F)cc(Cl)c2o1 [Compound 4-2] | – | – | 1 | 2 | 5 | 5 | 5 | 5 | 5 | – | – | – | – | – | – | – | 1 | 1 | – | –
C#CCN1C(=O)COc2cc(F)c(-c3cn(C)c(C(F)(F)F)cc3=O)cc21 [Compound 7-1] | 5 | 5 | – | 1 | – | – | – | – | – | – | – | 5 | 5 | 5 | – | 5 | – | – | – | –
Cn1c(C(F)(F)F)ccc(-c2cc(C#N)c(Cl)cc2F)c1=O [Compound No. 1-119, 3-(4-chloro-5-cyano-2-fluorophenyl)-1-methyl-6-trifluoromethyl-2(1H)-pyridone] | – | – | – | 0 | – | – | – | – | – | 5 | 4 | – | – | – | – | – | – | 1 | – | –
C#CCN1C(=O)COc2cc(F)c(-c3ccc(C(F)(F)F)n(C)c3=O)cc21 [Compound No. 2-1, 3-[7-fluoro-2,3-dihydro-4-(2-propynyl)-1,4-benzoxazin-3-on-6-yl]-1-methyl-6-trifluoromethyl-2(1H)-pyridone] | – | – | 2 | – | 5 | 5 | 5 | 5 | 5 | – | – | – | – | – | – | – | – | – | 5 | 5
C#CCn1c(=O)sc2cc(F)c(-c3ccc(C(F)(F)F)n(C)c3=O)cc21 [Compound No. 3-1, 3-[6-fluoro-3-(2-propynyl)-benzothiazolin-2-on-5-yl]-1-methyl-6-trifluoromethyl-2(1H)-pyridone] | – | – | 0 | 1 | – | – | – | – | – | – | – | 5 | 5 | 5 | 5 | 5 | 2 | 2 | – | –
